From patent US20030073618A1, “Compounds comprising disulfide-containing peptides and nitrogenous bases, and medical uses thereof” (priority 2001, published 2003)
Read-outs that look alike come from different tables or passages of the source.

Columns and labels:
[1] = tested on: mycobacterium tuberculosis; conditions: for CD4+ / CD4/CD8 / CD8+ / IL-1 / IL-4 / IL-6 / IL-8 / IL-12 / Lymphocytes: blood immune test; for ESR / Erythrocytes / Hemoglobin / Leukocytes / Monocytes / Platelets / Segmented neutrophils / Stab neutrophils: general blood test
HIV = format: in vivo; set-up: Hemoglobin / Platelets / Leukocytes / ESR: unit not given beside the values; (CD25+) / HLA-DR / (CD16) / IgA / IgM / IgG / CIC / (CD20+) / CD4+ / CD8+: unit not given here; conditions: for Lymphocyte count / Weight gained / Karnovsky score: Ex. 13; for Karnovsky score: on admission 75; for Erythrocytes / Hemoglobin / Leukocytes / Monocytes / Platelets / Segmented neutrophils / Stab neutrophils / ESR: general blood test; for (CD16) / (CD20+) / (CD25+) / CD4+ / CD4/CD8 / CD8+ / CIC / HLA-DR / IgA / IgG / IgM: immune blood test
[2] = Ex. 16, on treatment completion

## N[C@@H](CCC(=O)N[C@@H](CSSC[C@H](NC(=O)CC[C@H](NP(=O)(O)OC[C@H]1O[C@@H](n2cnc3c(=O)[nH]cnc32)[C@H](O)[C@@H]1O)C(=O)O)C(=O)NCC(=O)[O-])C(=O)NCC(=O)[O-])C(=O)O.[Li+].[Li+] [Example 16]
[1]; 19.12.98
  CD4+: 860
  CD4/CD8: 1.53
  CD8+: 563
  IL-1: 46
  IL-4: 37
  IL-6: 44
  IL-8: 50
  IL-12: 39
  Lymphocytes: 1400
  ESR: 13
  Erythrocytes: 4.3
  Hemoglobin: 132
  Leukocytes: 5.2
  Monocytes: 2
  Platelets: 230
  Segmented neutrophils: 51
  Stab neutrophils: 1
[1]; 20.10.98
  CD4+: 199
  CD4/CD8: 0.56
  CD8+: 357
  IL-1: 22
  IL-4: 32
  IL-6: 16
  IL-8: 23
  IL-12: 14
  Lymphocytes: 832
  ESR: 50
  Erythrocytes: 3.7
  Hemoglobin: 108
  Leukocytes: 9.9
  Monocytes: 12
  Platelets: 260
  Segmented neutrophils: 57
  Stab neutrophils: 12
[1]; 21.01.99
  CD4+: 892
  CD4/CD8: 1.50
  CD8+: 594
  IL-1: 39
  IL-4: 34
  IL-6: 39
  IL-8: 48
  IL-12: 47
  Lymphocytes: 1680
  ESR: 11
  Erythrocytes: 4.2
  Hemoglobin: 128
  Leukocytes: 6.8
  Monocytes: 5
  Platelets: 210
  Segmented neutrophils: 50
  Stab neutrophils: 3
[1]; 21.11.98
  CD4+: 527
  CD4/CD8: 1.25
  CD8+: 422
  IL-1: 29
  IL-4: 30
  IL-6: 29
  IL-8: 45
  IL-12: 28
  Lymphocytes: 1350
  ESR: 27
  Erythrocytes: 4.2
  Hemoglobin: 128
  Leukocytes: 5.2
  Monocytes: 4
  Platelets: 210
  Segmented neutrophils: 53
  Stab neutrophils: 6

## N[C@@H](CCC(=O)N[C@@H](CSSC[C@H](NC(=O)CC[C@H](NP(=O)(O)OC[C@H]1O[C@@H](n2cnc3c(=O)[nH]cnc32)[C@H](O)[C@@H]1O)C(=O)O)C(=O)NCC(=O)[O-])C(=O)NCC(=O)[O-])C(=O)O.[Li+].[Li+] [Li2-GSSG-IMP]
[1]; Ex. 16, in 2 months
  Karnovsky score: 75
[1]; Ex. 16, in 2 months, on admission 37.5
  Temperature: 36.7 °C
[1]; Ex. 16, in a month
  Weight gained: 4 kg
[1]; Ex. 16, in a month, on admission 50, with antibacterial therapy
  Karnovsky score: 70
[1]; Ex. 16, in a month, on admission up to 100
  Bacterial discharge, in the vision field by microscopy: 2-4
[1]; [2]
  Karnovsky score: 90
  Temperature: 36.6 °C
[1]; Ex. 16, on treatment completion, on admission 4×3 cm
  X-ray, destruction cavity: destruction cavity in the left lung upper lobe healed

## Cc1cn([C@H]2C[C@H](O)[C@@H](COP(=O)(O)N[C@@H](CCC(=O)N[C@@H](CSSC[C@H](NC(=O)CC[C@H](N)C(=O)O)C(=O)NCC(=O)[O][Zn])C(=O)NCC(=O)[O][Zn])C(=O)O)O2)c(=O)[nH]c1=O [Zn2-GSSG-TMP]
HIV; 1-month treatment
  Viral load: 66000 copies of HIV RNA/ml
HIV; after 1-month treatment
  Lymphocyte count: 1276
  Weight gained: 1.8 kg
  Karnovsky score: 80
HIV; after completion of treatment
  Lymphocyte count: 2295
  Weight gained: 2.5 kg
  Karnovsky score: 90
HIV; Initial value
  Viral load: 80000 copies of HIV RNA/ml
HIV; Treatment completion
  Viral load: 15000 copies of HIV RNA/ml
HIV; 01.04.96
  Erythrocytes: 3.9
  Hemoglobin: 126
  Leukocytes: 3.5
  Monocytes: 2
  Platelets: 180
  Segmented neutrophils: 41
  Stab neutrophils: 3
HIV; 03.04.96
  ESR: 21
  Erythrocytes: 3.9
  Hemoglobin: 125
  Leukocytes: 2.6
  Monocytes: 7
  Platelets: 170
  Segmented neutrophils: 47
  Stab neutrophils: 8
  (CD16): 198
  (CD20+): 217
  (CD25+): 207
  CD4+: 247
  CD4/CD8: 0.89
  CD8+: 277
  CIC: 0.175
  HLA-DR: 237
  IgA: 2.1
  IgG: 20
  IgM: 4.6
HIV; 13.03.96
  ESR: 18
  Erythrocytes: 5
  Hemoglobin: 160
  Leukocytes: 2.4
  Monocytes: 2
  Platelets: 200
  Segmented neutrophils: 48
  Stab neutrophils: 5
  (CD16): 216
  (CD20+): 256
  (CD25+): 226
  CD4+: 276
  CD4/CD8: 0.78
  CD8+: 354
  CIC: 0.09
  HLA-DR: 354
  IgA: 1.8
  IgG: 18.8
  IgM: 2.6
HIV; 15.05.96
  ESR: 12
  Erythrocytes: 4.2
  Hemoglobin: 136
  Leukocytes: 4.5
  Monocytes: 3
  Platelets: 190
  Segmented neutrophils: 49
  Stab neutrophils: 7
  (CD16): 505
  (CD20+): 390
  (CD25+): 482
  CD4+: 574
  CD4/CD8: 0.96
  CD8+: 597
  CIC: 0.075
  HLA-DR: 665
  IgA: 1.5
  IgG: 28
  IgM: 3.1
HIV; 16.04.96
  ESR: 20
  Erythrocytes: 4
  Hemoglobin: 129
  Leukocytes: 2.9
  Monocytes: 2
  Platelets: 180
  Segmented neutrophils: 45
  Stab neutrophils: 8
HIV; 28.03.96
  ESR: 16
  Erythrocytes: 4.3
  Hemoglobin: 136
  Leukocytes: 2.9
  Monocytes: 2
  Segmented neutrophils: 35
  Stab neutrophils: 4
HIV; 17.04.96
  (CD16): 332
  (CD20+): 306
  (CD25+): 332
  CD4+: 319
  CD4/CD8: 0.86
  CD8+: 370
  CIC: 0.11
  HLA-DR: 434
  IgA: 1.6
  IgG: 24
  IgM: 5.2
